Laboratory results: patent US20220305017A1, “COMPOSITIONS AND METHODS FOR THE TREATMENT OF ESTROGEN-DEPENDENT DISORDERS” (ObsEva S.A., priority 2019, published 2022)

Columns and labels:
[1] = tested on: human female patients diagnosed as having uterine fibroids; experiment: PRIMROSE 2 Phase 3 placebo-controlled trial in uterine fibroids; format: in vivo
Excerpt: This example describes the results of two Phase 3, double-blind, randomized, placebo-controlled, multicenter, human clinical trials undertaken to evaluate the efficacy of the GnRH antagonist represented by formula (VI) in a series of patients suffering from uterine fibroids. In these trials, referred to herein as “PRIMROSE 1” and “PRIMROSE 2,” human female patients diagnosed as having uterine fibroids were periodically administered compound (VI), 3-[2-fluoro-5-(2,3-difluoro-6-methoxybenzyloxy)4-methoxyphenyl]-2,4-dioxo-1,2,3,4-tetrahydrothieno [3,4d]pyrimidine-5-carboxylic acid, in the form of a choline salt over the course of a 12-month treatment period. Patients were administered compound (VI) once daily in an amount of either 100 mg or 200 mg. Patients receiving compound (VI) in a daily amount of 200 mg also received once daily hormonal add-back therapy (ABT), which consisted of […] of β17-estradiol (E2) per day and 0.5 mg of norethindrone acetate (NETA) per day.
The PRIMROSE 1 study, conducted in the United States, enrolled 526 women. The PRIMROSE 2 study, conducted in the United States and Europe, enrolled 535 women.
Patients were randomized to one of several cohorts: (i) placebo, (ii) 100 mg/day of compound (VI), or (iii) 200 mg/day of compound (VI). Patients receiving 200 mg/day of compound (VI) also received once-daily ABT containing 1.0 mg E2 and 0.5 mg NETA.
Patients were assessed for uterine fibroid symptomology at baseline, after 24 weeks of treatment, and again after 52 weeks of treatment. […] Patients were also assessed in order to determine the number of days of uterine bleeding during their last 28-day interval prior to week 24 of treatment with placebo or compound (VI).
Pain levels were measured using a Verbal Rating Score (VRS), as described herein. Patients were also assessed to determine the proportion that reported an improvement in quality of life using the Uterine Fibroids Symptoms and Health-Related Quality of Life questionnaire.
To evaluate the safety of compound (VI), patients' bone mineral density levels were measured at baseline and at various timepoints during the studies.

[2] = tested on: human female patients diagnosed as having endometriosis; experiment: Phase 2b human clinical trial in endometriosis, 24-week treatment and post-treatment follow-up; format: in vivo; details: for Bone Mineral Density (Mean % change from baseline): spine
Procedure: This example describes the results of a Phase 2b human clinical trial undertaken to evaluate the efficacy of a GnRH antagonist represented by formula (VI) in a series of patients suffering from an estrogen-dependent disease. In this trial, a series of human female patients diagnosed as having endometriosis were administered the choline salt of 3-[2-fluoro-5-(2,3-difluoro-6-methoxybenzyloxy)4-methoxyphenyl]-2,4-dioxo-1,2,3,4-tetrahydrothieno [3,4d]pyrimidine-5-carboxylic acid periodically over the course of a 24-week treatment period. After 24 weeks of treatment, various patients entered a 24-week post-treatment follow-up period during which the patients were monitored for serum β17-estradiol (E2) concentration, severity of disease symptoms, and bone mineral density.
A series of n=328 human female patients having clinically-diagnosed endometriosis were randomly assigned to treatment arms in which patients were to be administered placebo or the GnRH antagonist in a once-daily amount of 50 mg/day, 100 mg/day, 75 mg/day, or 200 mg/day. Patients initially treated with placebo (plc) were administered the GnRH antagonist in an amount of 100 mg/day after 12 weeks. Also, after 12 weeks, patients that were initially administered 75 mg/day were provided a higher (100 mg/day) or lower (50 mg/day) dosage of the GnRH antagonist based on the patients' E2 levels at the 12-week point. The E2 levels for this group of patients is represented by “75 mg (TD)” in FIGS. 1-3. Patients that were administered 75 mg through the end of the treatment period are represented by “75 mg (FD)” in FIGS. 1-3.
After 24 weeks of continuous, once-daily treatment, administration of the GnRH antagonist ceased. A set of n=65 patients entered the 24-week post-treatment follow-up study. Following the 24-week treatment period, these patients were periodically monitored. The median E2 levels of patients that were administered the GnRH antagonist during the original 24-week treatment period and that subsequently entered the 24-week post-treatment follow-up study are shown in FIG. 1. FIGS. 2 and 3 show the mean change in dyspareunia and dyschezia scores for such patients over the 24-week treatment period and a 12-week portion of the post-treatment follow-up period.

human GnRH receptor = target: T1, human GnRH receptor (Homo sapiens, UniProt P30968); experiment: affinity for human GnRH receptor; format: binding; details: compound (VI) as well as its salts such as the choline salt; kind of constant not stated
T1 sequence (P30968 1-328): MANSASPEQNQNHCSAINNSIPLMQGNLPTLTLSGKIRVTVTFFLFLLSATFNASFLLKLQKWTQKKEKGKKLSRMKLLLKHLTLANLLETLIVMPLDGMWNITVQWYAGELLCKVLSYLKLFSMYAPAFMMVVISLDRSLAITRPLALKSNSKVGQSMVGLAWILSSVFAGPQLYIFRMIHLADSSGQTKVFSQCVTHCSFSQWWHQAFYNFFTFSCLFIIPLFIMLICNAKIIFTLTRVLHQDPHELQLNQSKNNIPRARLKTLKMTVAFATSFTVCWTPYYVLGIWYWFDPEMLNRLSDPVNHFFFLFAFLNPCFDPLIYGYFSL

SMILES: COc1cc(F)c(-n2c(=O)[nH]c3csc(C(=O)O)c3c2=O)cc1OCc1c(OC)ccc(F)c1F [Compound (VI), 3-[2-fluoro-5-(2,3-difluoro-6-methoxybenzyloxy)4-methoxyphenyl]-2,4-dioxo-1,2,3,4-tetrahydrothieno [3,4d]pyrimidine-5-carboxylic acid]
- p value: Improvement in quality of life, Change from baseline in quality of life (QoL) symptom severity score (LS mean) ([1]; 100 mg/day): p = 0.004
- p value: Improvement in quality of life, Change from baseline in quality of life (QoL) symptom severity score (LS mean) ([1]; 200 mg/day + once-daily ABT): p < 0.001
- proportion of patients with menstrual blood loss to a level of 80 mL and a 50% reduction from baseline ([1]; 52 weeks, 100 mg per day without ABT): 53.2%
- proportion of patients with menstrual blood loss ≤80 mL and ≥50% reduction from baseline ([1]; 52 weeks, 200 mg per day + ABT): 91.6%
- bone mineral density, lumbar spine ([1]; once-daily treatment, 24 and 52 weeks, FIG. 9): does not induce a substantial decrease in bone mineral density
- Overall Pelvic Pain Responder Rate (VRS score reduction of > 30% from baseline) ([2]; 75 mg once daily (choline salt), after 24 weeks of treatment, n = 48): 70.8%
- Overall Pelvic Pain Responder Rate (VRS score reduction of > 30% from baseline) ([2]; 75 mg once daily for 24 weeks, 12 weeks after cessation of treatment, n = 7): 87.5%
- Overall Pelvic Pain Responder Rate (VRS score reduction of > 30% from baseline) ([2]; 200 mg once daily (choline salt), after 24 weeks of treatment, n = 44): 77.3%
- Overall Pelvic Pain Responder Rate (VRS score reduction of > 30% from baseline) ([2]; 200 mg once daily for 24 weeks, 12 weeks after cessation of treatment, n = 10): 70.0%
- dyspareunia, Verbal Rating Score (VRS) ([2]; after cessation of 24-week once-daily treatment, 12-week portion of follow-up, FIG. 2): sustained reduction
- dyschezia, Numerical Rating Score (NRS) ([2]; after cessation of 24-week once-daily treatment, 12-week portion of follow-up, FIG. 3): sustained reduction
- Bone Mineral Density (Mean % change from baseline) ([2]; 75 mg once daily for 24 weeks, 12 weeks after cessation of treatment): +0.313%
- Bone Mineral Density (Mean % change from baseline) ([2]; 75 mg once daily, after 24 weeks of treatment): −0.798%
- Bone Mineral Density (Mean % change from baseline) ([2]; 200 mg once daily for 24 weeks, 12 weeks after cessation of treatment): +1.135%
- Bone Mineral Density (Mean % change from baseline) ([2]; 200 mg once daily, after 24 weeks of treatment): −2.602%
- affinity for human GnRH receptor (human GnRH receptor): 27.4 nM
